Laboratory results: patent US20200022370A1, “MICROBIOCIDAL OXADIAZOLE DERIVATIVES” (SYNGENTA PARTICIPATIONS AG, priority 2016, published 2020)

How the values were obtained:
[1] = system: Puccinia recondita f. Sp. Tritici; test: Puccinia recondita f. sp. tritici / wheat / leaf disc preventative (brown rust); type: in vivo; settings: foliar, 200 ppm in the applied formulation, wheat leaf segments cv. Kanzler, inoculated 1 day after application, vs untreated, 7 to 9 days after application, read-out: disease control
Description: (§1) Leaf disks or leaf segments of various plant species are cut from plants grown in a greenhouse. The cut leaf disks or segments are placed in multiwell plates (24-well format) onto water agar. The leaf disks are sprayed with a test solution before (preventative) or after (curative) inoculation. Compounds to be tested are prepared as DMSO solutions (max. 10 mg/ml) which are diluted to the appropriate concentration with 0.025% Tween20 just before spraying. The inoculated leaf disks or segments are incubated under defined conditions (temperature, relative humidity, light, etc.) according to the respective test system. A single evaluation of disease level is carried out 3 to 14 days after inoculation, depending on the pathosystem. Percent disease control relative to the untreated check leaf disks or segments is then calculated.
Example 1: Fungicidal Activity Against Puccinia recondita f. Sp. Tritici/Wheat/Leaf Disc Preventative (Brown Rust)
Wheat leaf segments cv. Kanzler were placed on agar in multiwell plates (24-well format) and sprayed with the Formulated test compound diluted in water. The leaf disks were inoculated with a spore suspension of the fungus 1 day after application. The inoculated leaf segments were incubated at 19° C. and 75% relative humidity (rh) under a light regime of 12 hours light/12 hours darkness in a climate cabinet and the activity of a compound was assessed as percent disease control compared to untreated when an appropriate level of disease damage appears in untreated check leaf segments (7 to 9 days after application).
(§2) The following compounds at 200 ppm in the applied Formulation give at least 80% disease control in this test when compared to untreated control leaf disks under the same conditions, which show extensive disease development.

[2] = system: Phakopsora pachyrhizi; test: Phakopsora pachyrhizi / soybean / leaf disc preventative (Asian soybean rust); type: in vivo; settings: foliar, 200 ppm in the applied formulation, soybean leaf disks, inoculated one day after application, vs untreated, 12 to 14 days after application, read-out: disease control
Description: as §1
Example 3: Fungicidal Activity Against Phakopsora pachyrhizi/Soybean/Leaf Disc Preventative (Asian Soybean Rust)
Soybean leaf disks are placed on water agar in multiwell plates (24-well format) and sprayed with the Formulated test compound diluted in water. One day after application leaf discs are inoculated by spraying a spore suspension on the lower leaf surface. After an incubation period in a climate cabinet of 24-36 hours in darkness at 20° C. and 75% rh leaf disc are kept at 20° C. with 12 h light/day and 75% rh. The activity of a compound is assessed as percent disease control compared to untreated when an appropriate level of disease damage appears in untreated check leaf disks (12 to 14 days after application).
as §2

[3] = system: Glomerella lacenarium (Colletotrichum lacenarium); test: Glomerella lacenarium (Colletotrichum lacenarium) liquid culture / cucumber / preventative (anthracnose); type: cell-based; settings: 20 ppm, liquid culture in PDB, 24° C., inhibition of growth measured photometrically 3 to 4 days after application, vs untreated, read-out: disease control
Description: Mycelia fragments or conidia suspensions of a fungus prepared either freshly from liquid cultures of the fungus or from cryogenic storage, are directly mixed into nutrient broth. DMSO solutions of the test compound (max. 10 mg/ml) are diluted with 0.025% Tween20 by a factor of 50 and 10 μl of this solution is pipetted into a microtiter plate (96-well format). The nutrient broth containing the fungal spores/mycelia fragments is then added to give an end concentration of the tested compound. The test plates are incubated in the dark at 24° C. and 96% relative humidity. The inhibition of fungal growth is determined photometrically after 2 to 7 days, depending on the pathosystem, and percent antifungal activity relative to the untreated check is calculated.
Example 4: Fungicidal Activity Against Glomerella lacenarium (Colletotrichum lacenarium) Liquid Culture/Cucumber/Preventative (Anthracnose)
Conidia of the fungus from cryogenic storage are directly mixed into nutrient broth (PDB-potato dextrose broth). After placing a (DMSO) solution of test compound into a microtiter plate (96-well format), the nutrient broth containing the fungal spores is added. The test plates are incubated at 24° C. and the inhibition of growth is measured photometrically 3 to 4 days after application.
The following compounds at 20 ppm in the applied Formulation give at least 80% disease control in this test when compared to untreated control under the same conditions, which show extensive disease development.

Structure (SMILES)	pest or weed control at 200 ppm [1] [%]	pest or weed control at 200 ppm [2] [%]	inhibition of growth at 20 ppm [3] [%]
O=C(Cc1ccc2c(c1)OCO2)Nc1ccc(-c2noc(C(F)(F)F)n2)cc1 [Compound 1.12, 2-(1,3-benzodioxol-5-yl)-N-[4-[5-(trifluoromethyl)-1,2,4-oxadiazol-3-yl]phenyl]acetamide]	≥ 80	≥ 80	≥ 80
CCC(=O)Nc1ccc(CC(=O)Nc2ccc(-c3noc(C(F)(F)F)n3)cc2)cc1 [Compound 1.27, N-[4-[2-oxo-2-[4-[5-(trifluoromethyl)-1,2,4-oxadiazol-3-yl]anilino]ethyl]phenyl]propanamide]	–	≥ 80	–
COc1ncnc(OC)c1CC(=O)Nc1ccc(-c2noc(C(F)(F)F)n2)cc1 [Compound 1.36, 2-(4,6-dimethoxypyrimidin-5-yl)-N-[4-[5-(trifluoromethyl)-1,2,4-oxadiazol-3-yl]phenyl]acetamide]	≥ 80	≥ 80	≥ 80
COCc1nc(C)c(C(=O)Nc2ccc(-c3noc(C(F)(F)F)n3)nc2)s1 [Compound 1.51, 2-(methoxymethyl)-4-methyl-N-[6-[5-(trifluoromethyl)-1,2,4-oxadiazol-3-yl]-3-pyridyl]thiazole-5-carboxamide]	–	≥ 80	–
CC(C)(C(=O)Nc1ccc(-c2noc(C(F)(F)F)n2)nc1)c1ncc(Cl)cc1Cl [Compound 1.53, 2-(3,5-dichloro-2-pyridyl)-2-methyl-N-[6-[5-(trifluoromethyl)-1,2,4-oxadiazol-3-yl]-3-pyridyl]propanamide]	–	≥ 80	–
O=C(Nc1ccc(-c2noc(C(F)(F)F)n2)nc1)c1ccc(-n2ccnc2)cc1 [Compound 1.54, 4-imidazol-1-yl-N-[6-[5-(trifluoromethyl)-1,2,4-oxadiazol-3-yl]-3-pyridyl]benzamide]	≥ 80	≥ 80	≥ 80
O=C(Nc1ccc(-c2noc(C(F)(F)F)n2)cc1)C1=CCCC1 [Compound 1.81, N-[4-[5-(trifluoromethyl)-1,2,4-oxadiazol-3-yl]phenyl] cyclopentene-1-carboxamide]	–	≥ 80	≥ 80
CCC(CC)C(=O)Nc1ccc(-c2noc(C(F)(F)F)n2)cc1 [Compound 1.91, 2-ethyl-N-[4-[5-(trifluoromethyl)-1,2,4-oxadiazol-3-yl]phenyl]butanamide]	–	≥ 80	≥ 80
O=C(Nc1ccc(-c2noc(C(F)(F)F)n2)cc1)C1CCSCC1 [Compound 1.96, N-[4-[5-(trifluoromethyl)-1,2,4-oxadiazol-3-yl]phenyl] tetrahydrothiopyran-4-carboxamide]	≥ 80	–	≥ 80
O=C(CC1CC(F)(F)C1)Nc1ccc(-c2noc(C(F)(F)F)n2)cc1 [Compound 1.97, 2-(3,3-difluorocyclobutyl)-N-[4-[5-(trifluoromethyl)-1,2,4-oxadiazol-3-yl]phenyl]acetamide]	≥ 80	–	≥ 80
O=C(CCCC=C(F)F)Nc1ccc(-c2noc(C(F)(F)F)n2)cc1 [Compound 1.98, 6,6-difluoro-N-[4-[5-(trifluoromethyl)-1,2,4-oxadiazol-3-yl]phenyl]hex-5-enamide]	≥ 80	–	≥ 80
O=C(Cc1ccccc1F)Nc1ccc(-c2noc(C(F)(F)F)n2)cc1 [Compound 1.100, 2-(2-fluorophenyl)-N-[4-[5-(trifluoromethyl)-1,2,4-oxadiazol-3-yl]phenyl]acetamide]	≥ 80	–	≥ 80
CC(CO)(CCl)C(=O)Nc1ccc(-c2noc(C(F)(F)F)n2)cc1 (stereo not drawn) [Compound 1.103, 2-(chloromethyl)-3-hydroxy-2-methyl-N-[4-[5-(trifluoromethyl)-1,2,4-oxadiazol-3-yl]phenyl] propanamide]	≥ 80	–	≥ 80
O=C(CCc1cccnc1)Nc1ccc(-c2noc(C(F)(F)F)n2)cc1 [Compound 1.105, 3-(3-pyridyl)-N-[4-[5-(trifluoromethyl)-1,2,4-oxadiazol-3-yl]phenyl] propanamide]	≥ 80	–	≥ 80
O=C1CC(C(=O)Nc2ccc(-c3noc(C(F)(F)F)n3)cc2)C1 [Compound 1.106, 3-oxo-N-[4-[5-(trifluoromethyl)-1,2,4-oxadiazol-3-yl]phenyl]cyclo-butanecarboxamide]	≥ 80	–	≥ 80
O=C(Nc1ccc(-c2noc(C(F)(F)F)n2)cc1)C1OCCO1 [Compound 1.113, N-[4-[5-(trifluoromethyl)-1,2,4-oxadiazol-3-yl]phenyl]-1,3-dioxolane-2-carboxamide]	≥ 80	–	≥ 80
O=C(Cc1cc(C(F)(F)F)ccn1)Nc1ccc(-c2noc(C(F)(F)F)n2)cc1 [Compound 1.115, N-[4-[5-(trifluoromethyl)-1,2,4-oxadiazol-3-yl]phenyl]-2-[4-(trifluoromethyl)-2-pyridyl]acetamide]	≥ 80	–	≥ 80
O=C(Nc1ccc(-c2noc(C(F)(F)F)n2)cc1)C(F)F [Compound 1.120, 2,2-difluoro-N-[4-[5-(trifluoromethyl)-1,2,4-oxadiazol-3-yl]phenyl]acetamide]	≥ 80	–	≥ 80
COCCOCC(=O)Nc1ccc(-c2noc(C(F)(F)F)n2)cc1 [Compound 1.122, 2-(2-methoxyethoxy)-N-[4-[5-(trifluoromethyl)-1,2,4-oxadiazol-3-yl]phenyl]acetamide]	≥ 80	–	≥ 80
CN(C(=O)C1CC1(F)F)c1ccc(-c2noc(C(F)(F)F)n2)cc1 (stereo not drawn) [Compound 1.133, 2,2-difluoro-N-methyl-N-[4-[5-(trifluoromethyl)-1,2,4-oxadiazol-3-yl]phenyl]cyclo-propanecarboxamide]	–	≥ 80	–
CC1CC1C(=O)N(C)c1ccc(-c2noc(C(F)(F)F)n2)cc1 (stereo not drawn) [Compound 1.137, N,2-dimethyl-N-[4-[5-(trifluoromethyl)-1,2,4-oxadiazol-3-yl]phenyl]cyclo-propanecarboxamide]	–	≥ 80	≥ 80
CN(C(=O)C1(C)CC1)c1ccc(-c2noc(C(F)(F)F)n2)cc1 [Compound 1.138, N,1-dimethyl-N-[4-[5-(trifluoromethyl)-1,2,4-oxadiazol-3-yl]phenyl]cyclo-propanecarboxamide]	–	≥ 80	–
O=C(Nc1ccc(-c2noc(C(F)(F)F)n2)cc1)C1CCCC1 [Compound 2.6, N-[4-[5-(trifluoromethyl)-1,2,4-oxadiazol-3-yl]phenyl] cyclopentane-carboxamide]	≥ 80	–	≥ 80
O=C(Nc1ccc(-c2noc(C(F)(F)F)n2)cc1)C1CCC1 [Compound 2.9, N-[4-[5-(trifluoromethyl)-1,2,4-oxadiazol-3-yl]phenyl] cyclobutane-carboxamide]	≥ 80	–	≥ 80
CCC(=O)N(OC)c1ccc(-c2noc(C(F)(F)F)n2)cc1 [Compound 2.28, N-methoxy-N-[4-[5-(trifluoromethyl)-1,2,4-oxadiazol-3-yl]phenyl] propanamide]	–	≥ 80	≥ 80
